Laboratory results as given in PMC4503722, “Novel Phenotypic Outcomes Identified for a Public Collection of Approved Drugs from a Publicly Accessible Panel of Assays” (PLoS ONE, 2015).
pIC50: −log10 of the molar value. Where two headings read alike, the source gives them in different places.

Tests used:
RKO = experiment: cells; format: cell-based
DLD-1 = experiment: cells; format: cell-based; conditions: for pIC50: read-out: Basal_Viability ATP DLD-1 summarized IC50
SW480 = experiment: cells; format: cell-based; conditions: for pIC50: read-out: Basal_Viability ATP SW480 summarized IC50
HT-29 = experiment: cells; format: cell-based; conditions: for pIC50: read-out: Basal_Viability ATP HT-29 summarized IC50
SNU-C1 = experiment: cells; format: cell-based; conditions: for pIC50: read-out: Basal_Viability ATP SNU-C1 summarized IC50
HCT116 = experiment: cells; format: cell-based; conditions: for pIC50: read-out: Basal_Viability ATP HCT116 summarized IC50
Colo320 = experiment: cells; format: cell-based; conditions: for pIC50: read-out: Basal_Viability ATP Colo 320 summarized IC50
[1] = system: ECFC/ADSC co-culture cell nuclei number
[2] = system: endothelial tube formation in co-cultures of ECFCs and ADSCs treated with VEGF; experiment: cells; format: cell-based, human
HeLa cells = experiment: cells; format: cell-based;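 on Hela CellCycMod PI 4N summarized IC50: value tracks stimulation of 4N DNA content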

With CCOC(=O)Oc1ccc(CCNC(=O)[C@H](CCSC)NC(C)=O)cc1OC(=O)OCC [NCGC00249931-01] as the compound, how does the “Basal_Viability ATP RKO IC50/EC50” value (RKO; assay number 29) read?
The value was > 20 µM.

What about the “Basal_Viability ATP DLD-1 IC50/EC50” value (DLD-1; assay number 23) of the same compound?
The value was > 20 µM.

What about the “Basal_Viability ATP SW480 IC50/EC50” value (SW480; assay number 24) of the same compound?
The value was > 20 µM.

And the “Basal_Viability ATP HT-29 IC50/EC50” value (HT-29; assay number 28)?
Its value is > 20 µM.

What about the “Basal_Viability ATP SNU-C1 IC50/EC50” value (SNU-C1; assay number 30) of the same compound?
Its value is > 20 µM.

And the “Basal_Viability ATP HCT116 IC50/EC50” value (HCT116; assay number 25, basal)?
Its value is > 20 µM.

What about the “Basal_Viability ATP Colo 320 IC50/EC50” value (Colo320; assay number 27) of the same compound?
The value was > 20 µM.

Cc1cccc(Cc2cnc[nH]2)c1C.Cl [NCGC00182057-03] was tested. Which “IC50/EC50, Basal_Viability ATP RKO (assay number 29)” value (RKO; basal) did it give?
The value was > 20 µM.

What about the “IC50/EC50, Basal_Viability ATP DLD-1 (assay number 23)” value (DLD-1; basal) of the same compound?
The value was > 20 µM.

And the “IC50/EC50, Basal_Viability ATP SW480 (assay number 24)” value (SW480; basal)?
The value was > 20 µM.

And the “IC50/EC50, Basal_Viability ATP HT-29 (assay number 28)” value (HT-29; basal)?
Its value is > 20 µM.

And the “IC50/EC50, Basal_Viability ATP SNU-C1 (assay number 30)” value (SNU-C1; basal)?
The value was > 20 µM.

And the “IC50/EC50, Basal_Viability ATP HCT116 (assay number 25)” value (HCT116; basal)?
The value was > 20 µM.

What about the “IC50/EC50, Basal_Viability ATP Colo 320 (assay number 27)” value (Colo320; basal) of the same compound?
Its value is > 20 µM.

For Cc1nc2ccccc2n1Cc1ccc(Cl)cc1 [NCGC00160416-02], which “VEGF_ADSC\ECFC Angio Hoechst NucArea IC50/EC50” value [1] is on record?
The value was > 10 µM.

And the “Basal_Viability ATP DLD-1 IC50/EC50” value (DLD-1; assay number 23, basal)?
Its value is > 20 µM.

And the “VEGF_ADSC\ECFC Angio CD31 TubeArea IC50/EC50” value [2]?
The value was 7.3825 µM.

What about the “Basal_Viability ATP SW480 IC50/EC50” value (SW480; assay number 24, basal) of the same compound?
Its value is 5.3305 µM.

And the “Basal_Viability ATP HT-29 IC50/EC50” value (HT-29; assay number 28, basal)?
Its value is > 20 µM.

And the “Basal_Viability ATP SNU-C1 IC50/EC50” value (SNU-C1; assay number 30, basal)?
Its value is > 20 µM.

And the “Basal_Viability ATP HCT116 IC50/EC50” value (HCT116; assay number 25, basal)?
The value was 1.219 µM.

What about the “Hela CellCycMod PI 2N IC50/EC50” value (HeLa cells; assay number 14, 2N) of the same compound?
The value was > 10 µM.

And the “Hela CellCycMod PI 4N IC50/EC50” value (HeLa cells; assay number 16, 4N)?
Its value is > 10 µM.

What about the “Hela CellCycMod PI MI IC50/EC50” value (HeLa cells; assay number 17, MI) of the same compound?
Its value is > 10 µM.

And the “Hela CellCycMod PI Cell Number IC50/EC50” value (HeLa cells; assay number 18, cell number)?
Its value is 0.03183 µM.

What about the “Basal_Viability ATP Colo 320 IC50/EC50” value (Colo320; assay number 27, basal) of the same compound?
The value was 15.1764 µM.

Which results are given for [N-]=[N+]=CC(=O)OC[C@H](N)C(=O)O [NCGC00021876-04]?
Basal_Viability ATP RKO IC50/EC50 (RKO; assay number 29, basal): > 20 µM; Basal_Viability ATP DLD-1 IC50/EC50 (DLD-1; assay number 23, basal): > 20 µM; Basal_Viability ATP SW480 IC50/EC50 (SW480; assay number 24, basal): > 20 µM; Basal_Viability ATP HT-29 IC50/EC50 (HT-29; assay number 28, basal): > 20 µM; Basal_Viability ATP SNU-C1 IC50/EC50 (SNU-C1; assay number 30, basal): > 20 µM; Basal_Viability ATP HCT116 IC50/EC50 (HCT116; assay number 25, basal): > 20 µM

With CCCCCCOc1ccccc1C(N)=O [NCGC00095049-04] as the compound, how does the “IC50/EC50, Basal_Viability ATP RKO (assay number 29)” value (RKO; basal) read?
The value was > 6.6667 µM.

What about the “IC50/EC50, Basal_Viability ATP DLD-1 (assay number 23)” value (DLD-1; basal) of the same compound?
Its value is 8.6657 µM.

What about the “IC50/EC50, Basal_Viability ATP SW480 (assay number 24)” value (SW480; basal) of the same compound?
The value was > 20 µM.

And the “IC50/EC50, Basal_Viability ATP HT-29 (assay number 28)” value (HT-29; basal)?
Its value is > 20 µM.

What about the “IC50/EC50, Basal_Viability ATP SNU-C1 (assay number 30)” value (SNU-C1; basal) of the same compound?
The value was 9.3567 µM.

And the “IC50/EC50, Basal_Viability ATP HCT116 (assay number 25)” value (HCT116; basal)?
Its value is > 6.6667 µM.

What about the “IC50/EC50, Basal_Viability ATP Colo 320 (assay number 27)” value (Colo320; basal) of the same compound?
Its value is > 20 µM.

Which results are given for NC(=O)N/N=C/c1ccc([N+](=O)[O-])o1 [NCGC00090686-11]?
pIC50 (RKO; assay number 29, basal, read-out: Basal_Viability ATP RKO summarized IC50): < 4.70; pIC50 (DLD-1; assay number 23, basal): < 4.70; pIC50 (SW480; assay number 24, basal): < 4.70; pIC50 (HT-29; assay number 28, basal): < 4.70; pIC50 (SNU-C1; assay number 30, basal): < 4.70; pIC50 (HCT116; assay number 25, basal): < 4.70; pIC50 (Colo320; assay number 27, basal): < 4.70

What does the source list for CC(C)(C)CC(C)(C)c1cc(Cc2cc(C(C)(C)CC(C)(C)C)cc(-n3nc4ccccc4n3)c2O)c(O)c(-n2nc3ccccc3n2)c1 [NCGC00167544-02]?
Basal_Viability ATP RKO IC50/EC50 (RKO; assay number 29, basal): > 20 µM; Basal_Viability ATP DLD-1 IC50/EC50 (DLD-1; assay number 23, basal): > 20 µM; Basal_Viability ATP SW480 IC50/EC50 (SW480; assay number 24, basal): > 20 µM; Basal_Viability ATP HT-29 IC50/EC50 (HT-29; assay number 28, basal): > 20 µM; Basal_Viability ATP SNU-C1 IC50/EC50 (SNU-C1; assay number 30, basal): > 20 µM; Basal_Viability ATP HCT116 IC50/EC50 (HCT116; assay number 25, basal): > 20 µM; Basal_Viability ATP Colo 320 IC50/EC50 (Colo320; assay number 27, basal): > 20 µM

How did the pIC50 ([1]; read-out: VEGF_ADSC\ECFC Angio Hoechst NucArea summarized IC50) turn out when Oc1c(I)cc(Cl)c2cccnc12 [NCGC00016391-13] was run?
The pIC50 was < 5.00.

What about the pIC50 (DLD-1) of the same compound?
Its pIC50 is 6.46.

And the pIC50 ([2]; read-out: VEGF_ADSC\ECFC Angio CD31 TubeArea summarized IC50)?
The pIC50 was < 5.00.

What about the pIC50 (SW480) of the same compound?
The pIC50 was 6.36.

What about the pIC50 (HT-29) of the same compound?
The pIC50 was 4.73.

And the pIC50 (SNU-C1)?
The pIC50 was 6.32.

And the pIC50 (HCT116)?
Its pIC50 is 6.41.

What about the pIC50 (HeLa cells; read-out: Hela CellCycMod PI 2N summarized IC50) of the same compound?
The pIC50 was < 5.00.

What about the pIC50 (HeLa cells; read-out: Hela CellCycMod PI 4N summarized IC50) of the same compound?
Its pIC50 is < 5.00.

And the pIC50 (HeLa cells; read-out: Hela CellCycMod PI Cell Number summarized IC50)?
Its pIC50 is < 5.00.

What about the pIC50 (HeLa cells; read-out: Hela CellCycMod PI MI summarized IC50) of the same compound?
Its pIC50 is < 5.00.

What about the pIC50 (Colo320) of the same compound?
Its pIC50 is 6.23.

With CC=CC1=C(C(=O)O)N2C(=O)[C@@H](NC(=O)[C@H](N)c3ccc(O)cc3)[C@H]2SC1 [NCGC00159513-03] as the compound, how does the “Basal_Viability ATP RKO IC50/EC50” value (RKO; assay number 29) read?
Its value is > 20 µM.

And the “Basal_Viability ATP DLD-1 IC50/EC50” value (DLD-1; assay number 23)?
The value was > 20 µM.

And the “Basal_Viability ATP SW480 IC50/EC50” value (SW480; assay number 24)?
Its value is > 20 µM.

What about the “Basal_Viability ATP HT-29 IC50/EC50” value (HT-29; assay number 28) of the same compound?
The value was > 20 µM.

And the “Basal_Viability ATP SNU-C1 IC50/EC50” value (SNU-C1; assay number 30)?
Its value is > 20 µM.

What about the “Basal_Viability ATP HCT116 IC50/EC50” value (HCT116; assay number 25, basal) of the same compound?
Its value is > 20 µM.

What about the “Basal_Viability ATP Colo 320 IC50/EC50” value (Colo320; assay number 27) of the same compound?
The value was > 20 µM.

Which results are given for CCn1cc(C(=O)O)c(=O)c2cnc(N3CCNCC3)nc21 [NCGC00016866-11]?
Basal_Viability ATP RKO IC50/EC50 (RKO; assay number 29, basal): > 20 µM; Basal_Viability ATP DLD-1 IC50/EC50 (DLD-1; assay number 23, basal): > 20 µM; Basal_Viability ATP SW480 IC50/EC50 (SW480; assay number 24, basal): > 20 µM; Basal_Viability ATP HT-29 IC50/EC50 (HT-29; assay number 28, basal): > 20 µM; Basal_Viability ATP SNU-C1 IC50/EC50 (SNU-C1; assay number 30, basal): > 20 µM; Basal_Viability ATP HCT116 IC50/EC50 (HCT116; assay number 25, basal): > 20 µM; Basal_Viability ATP Colo 320 IC50/EC50 (Colo320; assay number 27, basal): > 20 µM
